Source: ChEMBL document CHEMBL1137046, “Potent and selective proline derived dipeptidyl peptidase IV inhibitors” (Bioorg Med Chem Lett, 2004)

How the values were obtained:
[1] = molecular target: T1, Prolyl endopeptidase (Homo sapiens, UniProt P48147); experiment: Inhibition of prolyl endopeptidase
T1 sequence (P48147 whole entry): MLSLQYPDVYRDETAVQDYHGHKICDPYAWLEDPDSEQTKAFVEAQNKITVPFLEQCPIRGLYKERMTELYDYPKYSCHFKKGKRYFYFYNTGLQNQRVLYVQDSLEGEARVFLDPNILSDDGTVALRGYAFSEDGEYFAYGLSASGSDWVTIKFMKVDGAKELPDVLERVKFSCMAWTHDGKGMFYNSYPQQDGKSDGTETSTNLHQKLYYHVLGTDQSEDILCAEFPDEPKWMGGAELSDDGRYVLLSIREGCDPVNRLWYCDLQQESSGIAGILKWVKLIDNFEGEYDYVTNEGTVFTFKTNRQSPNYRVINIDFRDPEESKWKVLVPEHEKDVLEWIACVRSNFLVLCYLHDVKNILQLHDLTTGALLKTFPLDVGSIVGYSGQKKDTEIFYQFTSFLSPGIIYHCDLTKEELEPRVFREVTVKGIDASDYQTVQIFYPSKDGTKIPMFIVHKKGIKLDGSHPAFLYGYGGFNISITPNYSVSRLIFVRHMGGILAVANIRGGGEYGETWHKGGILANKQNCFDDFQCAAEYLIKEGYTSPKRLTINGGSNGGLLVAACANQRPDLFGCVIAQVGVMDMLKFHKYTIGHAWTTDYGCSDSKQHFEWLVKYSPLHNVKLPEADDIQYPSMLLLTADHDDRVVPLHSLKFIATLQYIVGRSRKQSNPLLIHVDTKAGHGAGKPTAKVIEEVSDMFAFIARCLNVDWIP

[2] = molecular target: Dipeptidyl peptidase 2 (Homo sapiens, UniProt Q9UHL4); experiment: Inhibition of Quiescent cell prolyl dipeptidase
[3] = molecular target: Dipeptidyl peptidase 8 (Homo sapiens, UniProt Q6V1X1); experiment: Inhibition of Dipeptidylpeptidase VIII
Chain of Dipeptidyl peptidase 8 (Q6V1X1 whole entry): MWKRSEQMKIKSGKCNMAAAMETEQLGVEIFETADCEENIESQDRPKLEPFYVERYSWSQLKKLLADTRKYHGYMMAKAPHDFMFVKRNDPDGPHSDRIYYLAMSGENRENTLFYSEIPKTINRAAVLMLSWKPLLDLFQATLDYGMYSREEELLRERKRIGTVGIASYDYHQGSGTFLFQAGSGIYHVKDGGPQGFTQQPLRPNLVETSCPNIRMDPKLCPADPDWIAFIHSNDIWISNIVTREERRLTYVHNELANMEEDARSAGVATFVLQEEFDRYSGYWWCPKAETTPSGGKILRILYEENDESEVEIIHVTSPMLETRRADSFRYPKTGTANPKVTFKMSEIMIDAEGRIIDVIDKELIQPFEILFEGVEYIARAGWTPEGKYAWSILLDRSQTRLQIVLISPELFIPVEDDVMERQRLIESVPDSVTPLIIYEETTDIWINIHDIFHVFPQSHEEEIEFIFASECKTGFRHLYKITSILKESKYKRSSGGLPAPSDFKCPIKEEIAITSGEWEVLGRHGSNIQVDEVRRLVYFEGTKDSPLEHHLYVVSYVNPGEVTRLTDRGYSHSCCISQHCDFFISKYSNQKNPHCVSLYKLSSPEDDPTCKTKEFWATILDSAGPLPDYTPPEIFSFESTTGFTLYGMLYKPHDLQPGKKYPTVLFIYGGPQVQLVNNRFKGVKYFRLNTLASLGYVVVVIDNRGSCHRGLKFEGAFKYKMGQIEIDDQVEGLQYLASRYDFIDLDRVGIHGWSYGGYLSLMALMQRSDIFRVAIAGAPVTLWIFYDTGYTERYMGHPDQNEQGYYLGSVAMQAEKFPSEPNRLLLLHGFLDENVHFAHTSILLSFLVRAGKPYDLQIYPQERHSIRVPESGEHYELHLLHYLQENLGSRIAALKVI

[4] = Half-life in rats ([…]/[…] mg/kg i.v./p.o.); assay type: ADME, organism-based; conditions: rat, in vivo, 2 mg/kg
[5] = Oral bioavailability in rat (dose 1 mg/kg i.v. and 2 mg/kg p.o.); assay type: ADME, organism-based; conditions: in vivo
[6] = molecular target: T2, Xaa-Pro dipeptidase (Homo sapiens, UniProt P12955); experiment: Inhibition of prolidase
T2 sequence (P12955 whole entry): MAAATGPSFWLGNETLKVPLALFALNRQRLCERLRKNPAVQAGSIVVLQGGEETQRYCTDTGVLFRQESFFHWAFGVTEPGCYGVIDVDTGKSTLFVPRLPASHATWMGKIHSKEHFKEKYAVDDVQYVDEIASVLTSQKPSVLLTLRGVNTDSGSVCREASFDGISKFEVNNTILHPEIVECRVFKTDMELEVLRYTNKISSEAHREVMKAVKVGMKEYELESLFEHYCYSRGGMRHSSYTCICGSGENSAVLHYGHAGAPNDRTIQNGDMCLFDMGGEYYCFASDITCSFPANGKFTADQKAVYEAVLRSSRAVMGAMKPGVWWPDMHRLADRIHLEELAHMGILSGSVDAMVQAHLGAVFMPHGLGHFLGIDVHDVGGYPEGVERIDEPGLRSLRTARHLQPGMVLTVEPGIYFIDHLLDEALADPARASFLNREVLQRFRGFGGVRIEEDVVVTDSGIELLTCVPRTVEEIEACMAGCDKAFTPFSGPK

[7] = molecular target: T3, Prolyl endopeptidase FAP (Homo sapiens, UniProt Q12884); experiment: Inhibition of Fibroblast activation protein alpha (seprase)
T3 sequence (Q12884 whole entry): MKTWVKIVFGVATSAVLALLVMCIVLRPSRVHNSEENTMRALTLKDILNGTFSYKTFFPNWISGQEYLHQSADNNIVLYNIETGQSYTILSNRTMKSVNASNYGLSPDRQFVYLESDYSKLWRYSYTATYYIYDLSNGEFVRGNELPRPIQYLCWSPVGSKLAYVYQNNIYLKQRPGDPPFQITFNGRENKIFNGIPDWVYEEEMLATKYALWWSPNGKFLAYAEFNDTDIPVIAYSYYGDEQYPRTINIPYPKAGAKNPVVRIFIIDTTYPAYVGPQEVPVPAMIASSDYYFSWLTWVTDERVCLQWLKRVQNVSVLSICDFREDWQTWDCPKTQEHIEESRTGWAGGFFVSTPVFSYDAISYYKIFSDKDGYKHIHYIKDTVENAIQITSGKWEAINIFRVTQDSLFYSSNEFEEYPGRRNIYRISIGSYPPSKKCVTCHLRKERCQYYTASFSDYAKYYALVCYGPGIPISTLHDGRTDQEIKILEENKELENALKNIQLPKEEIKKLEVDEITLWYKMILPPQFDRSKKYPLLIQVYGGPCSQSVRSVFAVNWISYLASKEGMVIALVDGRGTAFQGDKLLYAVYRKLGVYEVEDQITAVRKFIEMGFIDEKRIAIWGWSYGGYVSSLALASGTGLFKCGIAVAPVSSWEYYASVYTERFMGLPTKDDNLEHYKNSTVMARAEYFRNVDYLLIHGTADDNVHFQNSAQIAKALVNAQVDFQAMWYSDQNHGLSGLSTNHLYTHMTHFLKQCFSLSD

[8] = molecular target: Dipeptidyl peptidase 9 (Homo sapiens, UniProt Q86TI2); experiment: Inhibition of Dipeptidylpeptidase IX
Chain of Dipeptidyl peptidase 9 (Q86TI2 whole entry): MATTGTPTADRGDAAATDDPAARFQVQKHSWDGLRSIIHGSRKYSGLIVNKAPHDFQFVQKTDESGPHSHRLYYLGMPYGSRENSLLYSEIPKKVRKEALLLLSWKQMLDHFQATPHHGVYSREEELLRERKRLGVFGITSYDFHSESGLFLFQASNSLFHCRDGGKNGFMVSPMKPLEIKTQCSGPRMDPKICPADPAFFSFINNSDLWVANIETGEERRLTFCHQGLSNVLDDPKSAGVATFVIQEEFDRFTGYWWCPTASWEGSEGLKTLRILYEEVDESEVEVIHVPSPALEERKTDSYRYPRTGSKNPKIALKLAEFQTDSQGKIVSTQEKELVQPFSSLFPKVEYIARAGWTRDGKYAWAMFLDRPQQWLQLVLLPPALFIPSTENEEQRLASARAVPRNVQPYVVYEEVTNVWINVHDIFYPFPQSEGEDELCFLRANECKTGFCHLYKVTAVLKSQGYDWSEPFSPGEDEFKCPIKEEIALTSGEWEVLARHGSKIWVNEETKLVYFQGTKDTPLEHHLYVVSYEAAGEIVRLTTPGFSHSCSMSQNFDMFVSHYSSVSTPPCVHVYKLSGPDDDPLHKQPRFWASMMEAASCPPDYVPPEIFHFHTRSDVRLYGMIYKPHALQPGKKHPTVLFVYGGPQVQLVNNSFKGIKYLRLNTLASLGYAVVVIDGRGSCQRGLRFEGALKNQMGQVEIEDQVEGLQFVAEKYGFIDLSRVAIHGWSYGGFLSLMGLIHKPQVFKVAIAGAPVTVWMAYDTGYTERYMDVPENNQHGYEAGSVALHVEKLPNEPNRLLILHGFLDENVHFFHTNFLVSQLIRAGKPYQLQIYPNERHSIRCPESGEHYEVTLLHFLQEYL

[9] = Plasma clearance in rats (1/2 mg/kg i.v./p.o.); assay type: ADME, organism-based; conditions: rat, 1 mg/kg i.v.
[10] = Inhibition of Aminopeptidase P
[11] = molecular target: Dipeptidyl peptidase 4 (Homo sapiens, UniProt P27487); experiment: Inhibition of human recombinant Dipeptidylpeptidase IV
Chain of Dipeptidyl peptidase 4 (P27487 whole entry): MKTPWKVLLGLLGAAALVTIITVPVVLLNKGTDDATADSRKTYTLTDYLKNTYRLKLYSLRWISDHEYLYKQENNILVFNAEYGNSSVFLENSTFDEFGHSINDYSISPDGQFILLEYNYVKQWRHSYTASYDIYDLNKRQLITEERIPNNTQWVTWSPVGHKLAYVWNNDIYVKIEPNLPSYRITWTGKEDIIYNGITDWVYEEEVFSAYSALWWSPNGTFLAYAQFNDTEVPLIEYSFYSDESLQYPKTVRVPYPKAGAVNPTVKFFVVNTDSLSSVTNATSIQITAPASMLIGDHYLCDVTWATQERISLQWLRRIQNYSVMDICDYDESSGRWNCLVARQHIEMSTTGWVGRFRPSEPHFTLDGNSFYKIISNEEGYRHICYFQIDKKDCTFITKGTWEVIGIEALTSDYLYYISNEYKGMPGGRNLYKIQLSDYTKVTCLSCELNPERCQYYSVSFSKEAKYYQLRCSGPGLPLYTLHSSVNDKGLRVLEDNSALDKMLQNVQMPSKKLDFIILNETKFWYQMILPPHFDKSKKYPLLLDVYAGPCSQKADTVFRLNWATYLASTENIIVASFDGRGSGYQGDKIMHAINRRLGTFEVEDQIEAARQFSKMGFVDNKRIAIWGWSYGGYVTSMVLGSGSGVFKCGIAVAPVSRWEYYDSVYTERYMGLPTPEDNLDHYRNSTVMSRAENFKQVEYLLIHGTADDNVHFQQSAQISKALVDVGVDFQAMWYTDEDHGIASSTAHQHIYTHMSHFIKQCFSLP

[12] = molecular target: Voltage-gated inwardly rectifying potassium channel KCNH2 (Homo sapiens, UniProt Q12809); experiment: Inhibition of human Potassium channel HERG
Chain of Voltage-gated inwardly rectifying potassium channel KCNH2 (Q12809 whole entry): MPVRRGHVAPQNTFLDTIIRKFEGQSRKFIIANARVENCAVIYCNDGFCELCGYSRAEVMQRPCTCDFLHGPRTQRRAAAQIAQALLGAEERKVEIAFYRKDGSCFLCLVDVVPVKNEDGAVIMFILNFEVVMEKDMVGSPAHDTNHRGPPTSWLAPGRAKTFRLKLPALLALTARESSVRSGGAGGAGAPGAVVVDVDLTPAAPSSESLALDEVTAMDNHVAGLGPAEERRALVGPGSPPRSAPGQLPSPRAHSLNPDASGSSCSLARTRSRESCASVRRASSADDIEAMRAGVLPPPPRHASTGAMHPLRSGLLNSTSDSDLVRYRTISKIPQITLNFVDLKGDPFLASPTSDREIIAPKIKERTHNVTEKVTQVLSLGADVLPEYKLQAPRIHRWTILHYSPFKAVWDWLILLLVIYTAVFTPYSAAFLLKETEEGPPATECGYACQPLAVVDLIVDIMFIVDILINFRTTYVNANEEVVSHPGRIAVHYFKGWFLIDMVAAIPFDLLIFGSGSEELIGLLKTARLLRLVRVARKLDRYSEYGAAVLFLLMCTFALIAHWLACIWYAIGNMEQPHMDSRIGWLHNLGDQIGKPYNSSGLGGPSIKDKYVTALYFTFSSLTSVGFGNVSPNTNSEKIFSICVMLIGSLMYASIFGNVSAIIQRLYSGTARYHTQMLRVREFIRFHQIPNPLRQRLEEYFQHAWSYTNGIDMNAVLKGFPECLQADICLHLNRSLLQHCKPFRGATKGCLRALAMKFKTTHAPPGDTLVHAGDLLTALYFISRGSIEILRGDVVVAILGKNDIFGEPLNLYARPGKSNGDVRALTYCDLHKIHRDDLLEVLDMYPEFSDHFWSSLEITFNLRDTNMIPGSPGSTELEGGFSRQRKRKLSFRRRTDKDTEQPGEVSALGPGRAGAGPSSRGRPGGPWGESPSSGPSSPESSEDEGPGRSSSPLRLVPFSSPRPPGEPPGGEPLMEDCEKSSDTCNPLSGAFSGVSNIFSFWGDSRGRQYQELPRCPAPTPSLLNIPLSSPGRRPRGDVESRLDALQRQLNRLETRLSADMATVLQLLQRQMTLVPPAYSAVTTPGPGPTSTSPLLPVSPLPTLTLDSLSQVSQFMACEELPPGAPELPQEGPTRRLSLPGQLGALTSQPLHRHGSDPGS

Row | Structure (SMILES) | IC50 [1] | IC50 [2] | IC50 [3] | half-life [4] | bioavailability [5] | IC50 [6] | IC50 [7] | IC50 [8] | clearance [9] | IC50 [10] | IC50 [11] | IC50 [12]
1 | NC(CC(=O)N1CSC[C@H]1C(=O)NCc1ccc(CC(=O)O)cc1)Cc1ccccc1F.O=C(O)C(F)(F)F (stereo not given in full) |  | > 100 µM | > 50 µM | 11.4 min | 10% |  | > 100 µM |  | 25 mL/min/kg |  |  | 
2 | NC(CC(=O)N1CCC[C@H]1C(=O)NCc1ccc(C(=O)O)cc1)Cc1ccc(F)c(F)c1.O=C(O)C(F)(F)F (stereo not given in full) |  | > 100 µM | > 100 µM | 21.6 min | < 1% |  | > 100 µM | > 100 µM | 47 mL/min/kg |  |  | 
3 | CC(C)[C@@H](Oc1ccc(CNC(=O)[C@@H]2CCCN2C(=O)CC(N)Cc2cc(F)ccc2F)cc1)C(=O)O.O=C(O)C(F)(F)F (stereo not given in full) | 39 µM | > 100 µM | > 100 µM | 37.8 min |  | > 100 µM | 21 µM | 86 µM | 150 mL/min/kg | > 100 µM | 0.00048 µM | 
4 | NC(CC(=O)N1CCC[C@H]1C(=O)NCCCCc1nn[nH]n1)Cc1ccccc1F.O=C(O)C(F)(F)F (stereo not given in full) |  | > 100 µM | > 100 µM | 12 min | < 1% | > 100 µM | > 100 µM | > 100 µM | 54 mL/min/kg | > 100 µM | 0.039 µM | 

More lines, main results first:

Row | IC50 [1] | IC50 [2] | IC50 [3] | half-life [4] | bioavailability [5] | IC50 [6] | IC50 [7] | IC50 [8] | clearance [9] | IC50 [10] | IC50 [11] | Structure (SMILES) | IC50 [12]
5 | > 100 µM | > 100 µM | > 100 µM | 21.6 min | < 1% | > 100 µM | 48 µM | > 100 µM | 47 mL/min/kg | > 100 µM | 0.0082 µM | CC(C)[C@@H](Oc1ccc(CNC(=O)[C@@H]2CCCN2C(=O)CC(N)Cc2c(F)c(F)c(F)c(F)c2F)cc1)C(=O)O.O=C(O)C(F)(F)F (stereo not given in full) | 
6 | > 100 µM | > 100 µM |  |  |  |  | > 100 µM |  |  |  |  | CC(C)[C@@H](Oc1ccc(CNC(=O)[C@@H]2CCCN2C(=O)C(N)C2CCCCC2)cc1)C(=O)O (stereo not given in full) | > 90 µM
7 | 100 µM | 59 µM | > 100 µM | 6 min | 11% | > 100 µM | > 100 µM | > 100 µM | 140 mL/min/kg | > 100 µM | 0.087 µM | COC(=O)Cc1ccc(CNC(=O)[C@@H]2CSCN2C(=O)CC(N)Cc2ccccc2F)cc1.O=C(O)C(F)(F)F (stereo not given in full) | 9.7 µM
8 |  | 55 µM | 5.3 µM | 46.8 min | 38% | > 100 µM | > 100 µM | > 100 µM | 78 mL/min/kg | > 100 µM | 0.721 µM | NC(CC(=O)N1CCC[C@H]1C(=O)NCc1ccc(C(F)(F)F)cc1)Cc1ccccc1F.O=C(O)C(F)(F)F (stereo not given in full) | 
